Reference: patent US20230167149A1, “CD33 LIGANDS SUITABLE FOR INCORPORATION INTO CARRIERS” (GLYCOMIMETICS, INC., priority 2020, published 2023)

Target: T1, CD33 (Homo sapiens, UniProt P20138)
T1 construct: purchased BioLegend 750106
Test: CD33 competitive binding assay
Details: immobilized CD33-Fc; competition with Neu5Acα2-3Galβ1-3GalNAc-PAA-biotin; TMB readout at 450 nm
Experimental: The assay to screen for and characterize glycomimetic ligands of CD33 is a competitive binding assay, which allows the determination of IC50 values. CD33-Fc (BioLegend catalog item 750106) was immobilized in 96 well microtiter plates by incubation at 4° C. overnight. To reduce non-specific binding, bovine serum albumin was added to each well and incubated at room temperature for 2 hours. The plate was washed and serial dilutions of the test compounds were added to the wells in the presence of biotinylated polyacrylamide conjugated with Neu5Acα2-3Galβ1-3GalNAc-PAA-biotin (GlycoTech catalog item 01-088). After incubation at room temperature for 2 hours and washing, streptavidin/horseradish peroxidase was added to each well and incubated at room temperature for 30 minutes followed by an additional wash.
To determine the amount of glycopolymer bound to the immobilized CD33, the peroxidase substrate 3.3′.5.5′ tetramethylbenzidine (TMB) was added. After 5 minutes, the enzyme reaction was stopped by the addition of H3PO4 and the absorbance of light at a wavelength of 450 nm was determined. The concentration of test compound required to inhibit binding by 50% was determined and reported as the IC50 value.

T1 sequence (P20138 18-364): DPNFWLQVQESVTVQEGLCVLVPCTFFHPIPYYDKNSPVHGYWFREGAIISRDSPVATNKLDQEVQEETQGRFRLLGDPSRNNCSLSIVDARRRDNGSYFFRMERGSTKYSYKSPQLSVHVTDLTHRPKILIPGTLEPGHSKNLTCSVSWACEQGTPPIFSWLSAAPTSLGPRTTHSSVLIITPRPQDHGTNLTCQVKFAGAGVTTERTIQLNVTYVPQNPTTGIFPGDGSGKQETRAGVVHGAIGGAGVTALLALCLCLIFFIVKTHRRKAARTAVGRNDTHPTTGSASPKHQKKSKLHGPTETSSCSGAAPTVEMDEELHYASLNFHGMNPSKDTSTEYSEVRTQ

IC50: 40 µM
SMILES: CCCNC(=O)COC1C[C@](OCCCn2cc(-c3ccccc3)nn2)(C(=O)O)OC([C@H](O)[C@H](O)CNC(=O)c2cc(C)c(O)c(C)c2)[C@@H]1NC(=O)Cn1cc(C2CCCCC2)nn1 (stereo partly shown) [Compound 193]
